Test results published in patent publication US20240067617A1 (Albireo AB, priority 2022, published 2024).
pIC50: −log10 of the molar value.

Legend:
hIBAT = biological target: T1, hIBAT (Homo sapiens, UniProt Q12908); assay: IBAT (h/m) assay: 3H-taurocholic acid uptake in human IBAT-overexpressing cells; type: cell-based; conditions: 0.25 μM 3H-taurocholic acid + 5 μM cold taurocholic acid, 20 minutes at 37° C., highest test concentration 10 μM
T1 construct: expressed in transfected cells; kept under Puromycin selection
T1 sequence (Q12908 1-348): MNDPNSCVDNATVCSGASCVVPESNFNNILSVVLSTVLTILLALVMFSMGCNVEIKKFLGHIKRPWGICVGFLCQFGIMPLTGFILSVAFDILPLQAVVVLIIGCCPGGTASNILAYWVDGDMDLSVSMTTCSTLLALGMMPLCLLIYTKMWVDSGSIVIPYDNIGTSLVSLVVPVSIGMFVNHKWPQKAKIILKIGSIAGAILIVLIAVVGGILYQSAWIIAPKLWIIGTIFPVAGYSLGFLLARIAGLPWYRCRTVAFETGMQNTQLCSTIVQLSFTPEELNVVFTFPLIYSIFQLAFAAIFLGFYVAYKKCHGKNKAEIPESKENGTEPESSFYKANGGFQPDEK
Procedure, shortened: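 Human or mouse IBAT-overexpressing cells cultured 48 h, then exposed for 20 min at 37 °C to compounds (top 10 μM, 3-fold, 10 points; 0.2% DMSO) with 0.25 μM 3H-taurocholic acid plus 5 μM cold taurocholic acid. Uptake stopped on ice, cells washed with cold 1 mM taurocholic acid, radioactivity counted by scintillation.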

hLBAT = biological target: T2, hLBAT (Homo sapiens, UniProt Q14973); assay: LBAT (h/m) assay: 3H-taurocholic acid uptake in human LBAT-overexpressing cells; type: cell-based; conditions: 0.3 μM 3H-taurocholic acid + 7.5 μM cold taurocholic acid, 20 minutes at 37° C.
T2 construct: expressed in transfected cells; kept under Geneticin selection
T2 sequence (Q14973 1-349): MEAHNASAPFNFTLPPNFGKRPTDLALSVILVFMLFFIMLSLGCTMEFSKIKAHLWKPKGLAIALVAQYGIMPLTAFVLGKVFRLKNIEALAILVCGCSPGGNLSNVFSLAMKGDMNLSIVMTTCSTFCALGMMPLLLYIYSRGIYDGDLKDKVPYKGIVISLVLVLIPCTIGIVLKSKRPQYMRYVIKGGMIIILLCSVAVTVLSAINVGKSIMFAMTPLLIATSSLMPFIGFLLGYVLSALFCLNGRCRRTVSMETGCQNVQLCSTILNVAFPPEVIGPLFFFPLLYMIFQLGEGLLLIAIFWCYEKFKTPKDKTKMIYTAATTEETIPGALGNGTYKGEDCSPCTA
Procedure, shortened: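 Human or mouse LBAT-overexpressing cells given 10-point inhibitor series with 0.3 μM 3H-taurocholic acid plus cold taurocholic acid (7.5 μM human, 25 μM mouse), 0.2% DMSO, for 20 min at 37° C. Stopped on ice, washed with 1 mM unlabelled taurocholic acid; uptake measured by scintillation counting.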

SMILES	pIC50 (hIBAT)	pIC50 (hLBAT)
CCCCC1(CC)CN(c2ccccc2)c2cc(SC)c(CSCC(=O)O)cc2S(=O)(=O)C1 (single isomer, unassigned) [2, enantiomer 1]	9.70	5.69
CCCCC1(C)CN(c2ccccc2)c2cc(SC)c(CSCC(=O)O)cc2S(=O)(=O)C1 (single isomer, unassigned) [5, enantiomer 1]	9.15	5.22
CCCCC1(CC)CN(c2ccc(F)cc2)c2cc(SC)c(CSCC(=O)O)cc2S(=O)(=O)C1 (single isomer, unassigned) [7, enantiomer 1]	9.40	5.30
